{"source": "ChEMBL document CHEMBL1201862", "about": "“PubChem BioAssay data set” (2004)", "key": {"[1]": {"biological_target": "T1, Cannabinoid receptor 1 (Homo sapiens, UniProt P21554)", "T1 sequence (P21554 whole entry)": "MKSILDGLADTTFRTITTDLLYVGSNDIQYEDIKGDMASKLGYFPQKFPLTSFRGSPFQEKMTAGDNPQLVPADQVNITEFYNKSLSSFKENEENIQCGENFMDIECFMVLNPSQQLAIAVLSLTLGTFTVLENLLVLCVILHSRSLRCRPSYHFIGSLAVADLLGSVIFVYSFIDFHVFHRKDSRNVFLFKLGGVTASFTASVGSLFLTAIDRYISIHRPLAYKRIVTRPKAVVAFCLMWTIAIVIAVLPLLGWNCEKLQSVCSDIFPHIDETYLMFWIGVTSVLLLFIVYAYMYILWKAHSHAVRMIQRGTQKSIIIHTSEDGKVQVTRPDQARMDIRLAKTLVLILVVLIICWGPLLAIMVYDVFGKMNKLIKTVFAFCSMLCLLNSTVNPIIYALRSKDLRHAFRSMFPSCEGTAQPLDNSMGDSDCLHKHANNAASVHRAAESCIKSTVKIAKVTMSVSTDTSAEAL", "test": "SAR analysis of antagonists of the Cannabinoid Receptor 1 using an Image-Based Assay - Set 4. [Related pubchem assays (depositor defined):AID2013, AID2026]", "format": "functional"}, "[2]": {"biological_target": "T2, Cannabinoid receptor 2 (Homo sapiens, UniProt P34972)", "T2 sequence (P34972 whole entry)": "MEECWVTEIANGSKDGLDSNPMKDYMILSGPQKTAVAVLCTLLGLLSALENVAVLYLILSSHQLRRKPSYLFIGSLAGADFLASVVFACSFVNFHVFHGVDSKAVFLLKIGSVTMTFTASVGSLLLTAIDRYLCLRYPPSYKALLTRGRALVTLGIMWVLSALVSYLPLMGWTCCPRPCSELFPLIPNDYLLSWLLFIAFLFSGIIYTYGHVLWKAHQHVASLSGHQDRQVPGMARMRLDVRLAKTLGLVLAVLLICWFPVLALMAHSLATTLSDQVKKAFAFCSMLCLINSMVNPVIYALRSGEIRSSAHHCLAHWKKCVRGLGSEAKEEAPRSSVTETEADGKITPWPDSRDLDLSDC", "test": "SAR analysis of antagonists of the Cannabinoid Receptor 2 using an Image-Based Assay - Set 3. [Related pubchem assays (depositor defined):AID2013, AID2026]", "format": "functional"}, "[3]": {"test": "viability of uninfected HEp-2 cells – cell-based, HTS, cytotoxicity control for RSV inhibitor project, dose response (AID 2410)", "format": "functional", "conditions": "human respiratory syncytial virus"}, "[4]": {"biological_target": "G-protein coupled receptor 55 (Homo sapiens, UniProt Q9Y2T6)", "sequence (Q9Y2T6 whole entry)": "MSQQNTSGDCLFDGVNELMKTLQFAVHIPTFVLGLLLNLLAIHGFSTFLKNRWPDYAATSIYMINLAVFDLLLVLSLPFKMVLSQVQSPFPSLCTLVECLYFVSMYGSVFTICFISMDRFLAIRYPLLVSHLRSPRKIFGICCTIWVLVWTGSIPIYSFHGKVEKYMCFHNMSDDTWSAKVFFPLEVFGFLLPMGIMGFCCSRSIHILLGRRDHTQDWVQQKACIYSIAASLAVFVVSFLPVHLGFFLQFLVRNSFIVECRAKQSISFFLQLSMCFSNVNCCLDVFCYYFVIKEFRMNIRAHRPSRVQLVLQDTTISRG", "test": "SAR Analysis of Selective Antagonists of GPR55 using an Image-Based Assay - Set 4. [Related pubchem assays (depositor defined):AID2013, AID2026]", "format": "functional"}, "[5]": {"biological_target": "T1, Cannabinoid receptor 1", "test": "SAR analysis of agonists of the Cannabinoid Receptor 1 using an Image-Based Assay - Set 4. [Related pubchem assays (depositor defined):AID2013, AID2026]", "format": "functional"}, "[6]": {"biological_target": "T3, Probable nicotinate-nucleotide adenylyltransferase (Staphylococcus aureus (strain N315), UniProt P65502)", "T3 sequence (P65502 whole entry)": "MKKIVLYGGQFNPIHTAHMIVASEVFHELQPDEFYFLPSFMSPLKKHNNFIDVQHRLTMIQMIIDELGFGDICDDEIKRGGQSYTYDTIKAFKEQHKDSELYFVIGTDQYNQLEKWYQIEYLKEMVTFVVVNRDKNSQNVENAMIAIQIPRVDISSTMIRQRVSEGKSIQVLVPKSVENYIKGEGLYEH", "format": "functional, Staphylococcus aureus subsp. aureus N315", "conditions": "read-out: IC50_Mean"}, "[7]": {"biological_target": "T2, Cannabinoid receptor 2", "test": "SAR analysis of agonists of the Cannabinoid Receptor 2 using an Image-Based Assay - Set 3. [Related pubchem assays (depositor defined):AID2013, AID2026]", "format": "functional"}, "[8]": {"biological_target": "T4, G-protein coupled receptor 35 (Homo sapiens, UniProt Q9HC97)", "T4 sequence (Q9HC97 whole entry)": "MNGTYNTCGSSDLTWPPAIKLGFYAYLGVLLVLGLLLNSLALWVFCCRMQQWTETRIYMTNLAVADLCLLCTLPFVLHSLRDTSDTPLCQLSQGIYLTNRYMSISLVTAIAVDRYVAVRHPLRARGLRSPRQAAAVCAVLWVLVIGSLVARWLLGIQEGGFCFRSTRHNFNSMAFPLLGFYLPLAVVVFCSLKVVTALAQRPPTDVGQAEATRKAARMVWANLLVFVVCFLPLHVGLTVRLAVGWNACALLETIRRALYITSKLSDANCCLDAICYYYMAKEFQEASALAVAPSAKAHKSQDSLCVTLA", "test": "SAR analysis of Agonists of the GPR35 Receptor using an Image-Based Assay - Set 4. [Related pubchem assays (depositor defined):AID2013, AID2026]", "format": "functional"}, "[9]": {"biological_target": "T3, Probable nicotinate-nucleotide adenylyltransferase", "format": "functional, Staphylococcus aureus subsp. aureus N315"}, "[10]": {"biological_target": "T4, G-protein coupled receptor 35", "test": "SAR analysis of Antagonists of the GPR35 Receptor using an Image-Based Assay - Set 6. [Related pubchem assays (depositor defined):AID2013, AID2026]", "format": "functional"}, "[11]": {"biological_target": "Intestinal-type alkaline phosphatase (Mus musculus, UniProt P24822)", "sequence (P24822 whole entry)": "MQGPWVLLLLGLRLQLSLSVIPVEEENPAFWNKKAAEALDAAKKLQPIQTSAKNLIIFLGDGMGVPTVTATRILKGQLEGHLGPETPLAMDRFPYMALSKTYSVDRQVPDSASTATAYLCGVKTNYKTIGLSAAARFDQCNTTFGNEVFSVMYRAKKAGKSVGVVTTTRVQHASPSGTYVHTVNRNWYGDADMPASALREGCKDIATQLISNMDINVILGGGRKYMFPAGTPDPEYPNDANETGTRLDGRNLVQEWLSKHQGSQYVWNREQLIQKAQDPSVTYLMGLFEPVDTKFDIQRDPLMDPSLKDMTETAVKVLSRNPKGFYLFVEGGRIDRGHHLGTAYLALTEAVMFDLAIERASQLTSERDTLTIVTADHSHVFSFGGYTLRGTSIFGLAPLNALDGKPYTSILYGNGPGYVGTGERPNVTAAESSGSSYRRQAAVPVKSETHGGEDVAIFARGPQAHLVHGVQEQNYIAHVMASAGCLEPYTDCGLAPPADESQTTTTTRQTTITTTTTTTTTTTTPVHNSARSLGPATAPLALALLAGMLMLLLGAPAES", "test": "PubChem AID 488875", "format": "functional"}, "[12]": {"biological_target": "T5, Intestinal-type alkaline phosphatase (Homo sapiens, UniProt P09923)", "T5 sequence (P09923 whole entry)": "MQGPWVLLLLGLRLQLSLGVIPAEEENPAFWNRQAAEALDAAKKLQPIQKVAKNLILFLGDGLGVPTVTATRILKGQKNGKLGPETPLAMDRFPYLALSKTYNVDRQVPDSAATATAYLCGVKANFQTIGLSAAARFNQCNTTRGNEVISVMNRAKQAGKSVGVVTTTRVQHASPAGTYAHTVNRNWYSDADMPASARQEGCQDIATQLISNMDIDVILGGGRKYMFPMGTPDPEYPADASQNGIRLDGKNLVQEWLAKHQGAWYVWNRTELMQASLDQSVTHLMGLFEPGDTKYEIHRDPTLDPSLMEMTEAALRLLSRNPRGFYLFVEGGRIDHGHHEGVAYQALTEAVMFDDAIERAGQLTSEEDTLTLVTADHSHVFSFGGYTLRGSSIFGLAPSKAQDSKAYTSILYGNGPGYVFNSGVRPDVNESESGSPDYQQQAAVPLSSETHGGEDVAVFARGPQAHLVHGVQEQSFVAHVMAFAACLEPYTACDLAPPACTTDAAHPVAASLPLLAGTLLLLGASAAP", "test": "activation of human intestinal alkaline phosphatase – biochemical, luminescent, uHTS hits, set 2, dose response (AID 488817);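 note: potency of activators that raise enzyme activity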", "format": "functional"}, "[13]": {"biological_target": "T6, Alkaline phosphatase, tissue-nonspecific isozyme (Homo sapiens, UniProt P05186)", "T6 sequence (P05186 whole entry)": "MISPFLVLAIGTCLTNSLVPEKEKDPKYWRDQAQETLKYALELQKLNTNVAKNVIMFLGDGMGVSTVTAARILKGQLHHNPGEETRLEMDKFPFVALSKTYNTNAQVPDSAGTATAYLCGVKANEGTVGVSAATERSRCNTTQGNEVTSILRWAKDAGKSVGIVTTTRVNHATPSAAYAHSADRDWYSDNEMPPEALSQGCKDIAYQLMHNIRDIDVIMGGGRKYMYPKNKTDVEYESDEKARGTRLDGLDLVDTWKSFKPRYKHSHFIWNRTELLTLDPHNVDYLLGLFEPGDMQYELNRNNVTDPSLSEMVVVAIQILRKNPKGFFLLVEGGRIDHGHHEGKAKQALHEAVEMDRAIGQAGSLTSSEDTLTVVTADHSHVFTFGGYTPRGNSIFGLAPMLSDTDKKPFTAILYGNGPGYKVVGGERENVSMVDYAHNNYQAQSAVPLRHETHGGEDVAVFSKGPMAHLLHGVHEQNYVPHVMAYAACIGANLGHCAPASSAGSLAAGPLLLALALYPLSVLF", "test": "activation of tissue-nonspecific alkaline phosphatase – biochemical, TNAP isozyme, human IAP uHTS hits, selectivity assay for human IAP activator project, dose response (AID 488886);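 note: potency of compounds raising TNAP activity as a selectivity check on IAP activators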", "format": "functional"}, "[14]": {"biological_target": "T5, Intestinal-type alkaline phosphatase", "test": "human intestinal alkaline phosphatase activators, dose response, biochemical, luminescence, uHTS hits (AID 463120)", "format": "functional"}, "[15]": {"biological_target": "T7, Tyrosine-protein phosphatase non-receptor type 7 (Homo sapiens, UniProt P35236)", "T7 sequence (P35236 whole entry)": "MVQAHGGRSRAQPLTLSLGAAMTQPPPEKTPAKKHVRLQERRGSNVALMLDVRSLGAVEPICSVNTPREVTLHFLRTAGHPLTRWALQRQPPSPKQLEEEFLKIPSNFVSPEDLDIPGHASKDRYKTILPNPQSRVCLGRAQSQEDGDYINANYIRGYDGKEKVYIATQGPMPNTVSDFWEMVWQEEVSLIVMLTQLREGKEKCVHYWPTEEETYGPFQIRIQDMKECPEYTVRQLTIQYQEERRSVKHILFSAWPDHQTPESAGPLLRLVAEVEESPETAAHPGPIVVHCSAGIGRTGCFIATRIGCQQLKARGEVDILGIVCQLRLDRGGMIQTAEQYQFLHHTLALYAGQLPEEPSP", "format": "functional"}, "[16]": {"biological_target": "T8, Tyrosine-protein phosphatase non-receptor type 22 (Homo sapiens, UniProt Q9Y2R2)", "T8 sequence (Q9Y2R2 whole entry)": "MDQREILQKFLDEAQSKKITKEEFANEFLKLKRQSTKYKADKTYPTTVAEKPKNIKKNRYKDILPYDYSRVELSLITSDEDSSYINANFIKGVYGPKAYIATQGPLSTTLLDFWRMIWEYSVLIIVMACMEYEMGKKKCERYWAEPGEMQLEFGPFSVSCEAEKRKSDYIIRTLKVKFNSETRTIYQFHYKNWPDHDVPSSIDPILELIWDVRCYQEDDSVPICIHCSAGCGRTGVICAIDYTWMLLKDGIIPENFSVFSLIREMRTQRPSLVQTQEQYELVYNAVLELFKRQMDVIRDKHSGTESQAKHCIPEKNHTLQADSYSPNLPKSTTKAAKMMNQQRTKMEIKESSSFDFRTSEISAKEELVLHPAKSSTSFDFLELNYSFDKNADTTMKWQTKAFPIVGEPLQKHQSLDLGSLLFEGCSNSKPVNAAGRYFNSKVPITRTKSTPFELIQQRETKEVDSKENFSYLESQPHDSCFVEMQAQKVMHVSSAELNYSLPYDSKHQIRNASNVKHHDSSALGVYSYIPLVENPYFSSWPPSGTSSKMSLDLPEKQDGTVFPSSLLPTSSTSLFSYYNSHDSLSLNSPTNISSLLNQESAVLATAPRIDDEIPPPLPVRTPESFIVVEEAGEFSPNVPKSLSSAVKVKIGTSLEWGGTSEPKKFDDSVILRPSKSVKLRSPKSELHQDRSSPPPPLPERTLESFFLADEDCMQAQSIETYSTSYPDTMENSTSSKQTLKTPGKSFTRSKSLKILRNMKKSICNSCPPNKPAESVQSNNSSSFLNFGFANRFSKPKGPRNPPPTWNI", "format": "functional"}, "[17]": {"biological_target": "T8, Tyrosine-protein phosphatase non-receptor type 22", "format": "functional", "remark": "listed apart in the source"}}, "note": "Calls of active or inactive are those of the source.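 Throughout, for IC50 Mean: confirmatory dose-response retesting of NadD inhibitor hits first found in an ultra-high-throughput screen.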"}
{"smiles": "Cc1ccc(-c2cc(C(=O)Nc3ccc(S(=O)(=O)Nc4nccs4)cc3)c3ccccc3n2)c(C)c1", "values": [{"measurement": "IC50", "setting": "[1]", "result": "10.2 µM (inactive)"}, {"measurement": "IC50", "setting": "[2]", "result": "> 32 µM (inactive)"}, {"measurement": "CC50", "setting": "[3]", "result": "24.3 µM (active)"}, {"measurement": "IC50", "setting": "[4]", "result": "7.7 µM (active)"}, {"measurement": "EC50", "setting": "[5]", "result": "> 32 µM (inactive)"}, {"measurement": "IC50", "setting": "[6]", "result": "21.6 µM (active)"}, {"measurement": "EC50", "setting": "[7]", "result": "> 32 µM (inactive)"}, {"measurement": "EC50", "setting": "[8]", "result": "> 32 µM (inactive)"}, {"measurement": "IC50", "setting": "[9]", "result": "5.29 µM (active)"}, {"measurement": "IC50", "setting": "[10]", "result": "> 32 µM (inactive)"}]}
{"smiles": "CC(N=C(S)NC1CCC(C(C)(C)C)CC1)c1ccccc1", "note": "(configuration not stated)", "values": [{"measurement": "EC50", "setting": "[11]", "result": "22.4 µM (active)"}, {"measurement": "EC50", "setting": "[12]", "result": "44.3 µM (active)"}, {"measurement": "EC50", "setting": "[13]", "result": "38.8 µM (active)"}, {"measurement": "EC50", "setting": "[14]", "result": "39.8 µM (active)"}]}
{"smiles": "COc1ccc(C2CC(c3ccc(C)cc3)=NN2C(=O)CCC(=O)O)cc1OC", "note": "(configuration not stated)", "values": [{"measurement": "IC50", "setting": "[15]", "result": "> 79.4 µM (inactive)"}, {"measurement": "IC50", "setting": "[16]", "result": "> 79.4 µM (inactive)"}, {"measurement": "IC50", "setting": "[17]", "result": "> 79.4 µM (inactive)"}]}
